Results published in the Kinase Knowledgebase extract (Sharma et al. 2016).
pKi: −log10 of the molar value.

target: CDK2 (human) (UniProt P24941); assay: Enzyme Assay

| pKi | Compound |
| --- | --- |
| > 6.00 | O=c1[nH][nH]c2cc(SC3CCC(Nc4nccnn4)C3)ccc12 (stereo unspecified) |
| > 6.00 | COc1ccc2c(Nc3cc(C)[nH]n3)nc(Sc3ccc4c(=O)[nH][nH]c4c3)nc2c1 |
| > 6.00 | O=c1[nH][nH]c2cc(Oc3cc4ccccc4c(Nc4cc(C5CC5)[nH]n4)n3)ccc12 |
| > 6.00 | O=c1[nH][nH]c2cc(CC(CCNc3cc(C4CC4)[nH]n3)Cc3ccccc3)ccc12 (stereo unspecified) |
| > 6.00 | O=c1[nH][nH]c2cc(Nc3nc(Nc4cc(C5CC5)[nH]n4)c4cc(-c5ccccc5Cl)ccc4n3)ccc12 |
| > 6.00 | Cc1cnc(NC2CCCC(Oc3ccc4c(=O)[nH][nH]c4c3)C2)s1 (stereo unspecified) |
| > 6.00 | O=c1[nH][nH]c2cc(Nc3ccc([N+](=O)[O-])c(Nc4ncn[nH]4)n3)ccc12 |
| > 6.00 | COc1nc(Nc2ccc3c(=O)[nH][nH]c3c2)nc(Nc2cc(C3CC3)[nH]n2)n1 |
| > 6.00 | O=c1[nH][nH]c2cc(Nc3cccc(Nc4n[nH]c5ccccc45)n3)ccc12 |
| > 6.00 | CCCCc1cc(Nc2nc(-c3ccc4[nH][nH]c(=O)c4c3)nc(C3CC3)n2)n[nH]1 |
| > 6.00 | O=c1[nH][nH]c2ccc(CNc3cc(Nc4cc(C5CC5)[nH]n4)c4ccccc4n3)cc12 |
| > 6.00 | Cc1cc(Nc2cc(COc3ccc4c(=O)[nH][nH]c4c3)nc3c2CCCCC3)n[nH]1 |
| > 6.00 | O=c1[nH][nH]c2cc(Nc3ncnc(Nc4cc(C5CC5)[nH]n4)n3)ccc12 |
| > 6.00 | O=c1[nH][nH]c2cc(OC3COCC(Nc4cc(C5CC5)[nH]n4)C3)ccc12 (stereo unspecified) |
| > 6.00 | O=c1[nH][nH]c2cc(Oc3nccc(Nc4cc(C5CC5)[nH]n4)n3)ccc12 |
| > 6.00 | Cc1cc(Nc2cc(Cc3ccc4c(=O)[nH][nH]c4c3)nc3ccccc23)n[nH]1 |
| > 6.00 | O=c1[nH][nH]c2cc(Nc3cc(Nc4cc(C5CC5)[nH]n4)ncn3)ccc12 |
| > 6.00 | CC(C)c1cc(Nc2nc(Nc3ccc4c(=O)[nH][nH]c4c3)nc3ccc(-c4ccccc4)cc23)n[nH]1 |
| > 6.00 | O=c1[nH][nH]c2cc(Oc3nc(Nc4cc(C5CC5)[nH]n4)cc(-c4ccccc4)n3)ccc12 |
| > 6.00 | Cc1cnc(NC2COCC(Nc3ccc4c(=O)[nH][nH]c4c3)C2)s1 (stereo unspecified) |

Second part, the molecule before the results:

| Compound | pKi |
| --- | --- |
| Cc1cnc(NC(=O)CC(=O)Nc2ccc3c(=O)[nH][nH]c3c2)s1 | > 6.00 |
| O=c1[nH][nH]c2ccc(-c3nc(Nc4n[nH]c5ccccc45)cc(-c4ccccn4)n3)c(C(F)(F)F)c12 | > 6.00 |
| O=c1[nH][nH]c2cc(OCC3CCCC3Nc3nccnn3)ccc12 (stereo unspecified) | > 6.00 |
| Cc1cc(Nc2nc(-c3ccc4[nH][nH]c(=O)c4c3C(F)(F)F)nc3c2CCNCC3)n[nH]1 | > 6.00 |
| O=c1[nH][nH]c2ccc(-c3cc(Nc4n[nH]c5ccccc45)nnc3NCCN3CCCCC3)c(C(F)(F)F)c12 | > 6.00 |
| O=c1[nH][nH]c2cc(Cl)c(-c3cc(N4CCCCC4)nc(Nc4n[nH]c5ccccc45)n3)cc12 | > 6.00 |
| Cc1cnc(NC2CCCC2CSc2ccc3c(=O)[nH][nH]c3c2)s1 (stereo unspecified) | > 6.00 |
| O=C1Cc2nc(-c3ccc4[nH][nH]c(=O)c4c3C(F)(F)F)nc(Nc3n[nH]c4ccccc34)c2CN1 | > 6.00 |
| O=c1[nH][nH]c2cc(SC(CCNc3ccccn3)Cc3ccccc3)ccc12 (stereo unspecified) | > 6.00 |
| COCc1cc(Nc2nc(-c3ccc4[nH][nH]c(=O)c4c3C(F)(F)F)nc3ccccc23)n[nH]1 | > 6.00 |
| Cn1cnc(NC2COCC(Sc3ccc4c(=O)[nH][nH]c4c3)C2)c1 (stereo unspecified) | > 6.00 |
| O=c1[nH][nH]c2ccc(C3CCC(Nc4ccccn4)C3)cc12 (stereo unspecified) | > 6.00 |
| O=c1[nH][nH]c2ccc(-c3nc(Nc4n[nH]c5c(F)cc(F)cc45)c4cc(N5CCOCC5)ccc4n3)c(C(F)(F)F)c12 | > 6.00 |
| Cn1cnc(NCCC(Cc2ccccc2)Oc2ccc3c(=O)[nH][nH]c3c2)c1 (stereo unspecified) | > 6.00 |
| O=c1[nH][nH]c2ccc(-c3nc4c(c(Nc5n[nH]c6ccccc56)n3)N(Cc3ccccc3)CCC4)c(C(F)(F)F)c12 | > 6.00 |
| Cc1cnc(NCCCCc2ccc3c(=O)[nH][nH]c3c2)s1 | > 6.00 |
| O=c1[nH][nH]c2ccc(-c3cc(Nc4n[nH]c5c(F)cc(F)cc45)c4ccccc4n3)c(C(F)(F)F)c12 | > 6.00 |
| O=c1[nH][nH]c2ccc(-c3nc4c(c(Nc5n[nH]c6c(F)cccc56)n3)CCCCCC4)c(C(F)(F)F)c12 | > 6.00 |
| O=c1[nH][nH]c2cc(C3CC3C3COCC(Nc4nccnn4)C3)ccc12 (stereo unspecified) | > 6.00 |
| Cn1cnc(NCCCNc2ccc3c(=O)[nH][nH]c3c2)c1 | > 6.00 |
| Cc1cc(Nc2nc(-c3ccc4[nH][nH]c(=O)c4c3)nc3cc(-n4cccc4)ccc23)n[nH]1 | > 6.00 |
